Assay results published in ChEMBL document CHEMBL1772945, “Bioactive compounds from the scale insect pathogenic fungus Conoideocrella tenuis BCC 18627” (J Nat Prod, 2011).
≈ marks a conversion by molar mass, not a printed value. Where a name gives a salt, the structure may show the parent alone.

Legend:
[1] = test system: Human alphaherpesvirus 1; assay: Antiviral activity against HSV-1 by green fluorescent protein microplate assay; type: functional, organism-based
[2] = test system: Vero; assay: Cytotoxicity against african green monkey Vero cells by green fluorescent protein microplate assay; type: cell-based; conditions: Chlorocebus sabaeus
[3] = test system: KB; assay: Cytotoxicity against human KB cells after 45 hrs by resazurin microplate assay; type: functional, cell-based
[4] = test system: NCI-H187; assay: Cytotoxicity against human NCI-H187 cells after 45 hrs by resazurin microplate assay; type: functional, cell-based; conditions: NCI-H187, 45 h
[5] = test system: Plasmodium falciparum; assay: Antimalarial activity against multi-drug-resistant Plasmodium falciparum K1 by microculture radioisotope technique; type: functional, organism-based
[6] = test system: MCF7; assay: Cytotoxicity against human MCF7 cells after 45 hrs by resazurin microplate assay; type: functional, cell-based; conditions: MCF7, 45 h
[7] = test system: Mycobacterium tuberculosis; assay: Antitubercular activity against Mycobacterium tuberculosis H37Ra by green fluorescent protein microplate assay; type: functional

| SMILES | IC50 [1] [µM] | IC50 [2] [µM] | IC50 [3] [µM] | IC50 [4] [µM] | IC50 [5] [µM] | IC50 [6] [µM] | MIC [7] [µM] |
| --- | --- | --- | --- | --- | --- | --- | --- |
| CC(C)(O)[C@H]1CC[C@]2(C)[C@H]3C[C@@H](O)[C@@H]4[C@@]5(C)CCCC(C)(C)[C@@H]5[C@H](O)C[C@@]4(C)[C@]3(C=O)CC[C@@H]12 | 21 | 69 | 10 | 68 | > 21 | 28 | > 105 |
| CC(C)(O)[C@H]1CC[C@]2(C)[C@H]3C[C@@H](O)[C@@H]4[C@@]5(C)CCCC(C)(C)[C@@H]5[C@H](O)C[C@@]4(C)[C@]3(CO)CC[C@@H]12 | 14 | 47 | 5.6 | 47 | 9.8 | 15 | 52 (≈ 24.8 µg/mL) |
| CC(C)(O)[C@H]1CC[C@]2(C)[C@H]3CC[C@@H]4[C@@]5(C)CCCC(C)(C)[C@@H]5[C@H](O)[C@H](O)[C@@]4(C)[C@]3(C)CC[C@@H]12 | > 109 | > 109 | > 109 | > 109 | > 22 | > 109 | > 109 |
| COc1cc(OC)c2c(O)c3c(c(-c4c(OC)cc(OC)c5c(O)c6c(cc45)[C@H](OC(C)=O)[C@H](C)OC6)c2c1)[C@H](OC(C)=O)[C@H](C)OC3 | > 75 | > 75 | 15 | 12 | 15 | 37 | > 75 |
| COc1cc(OC)c2c(O)c3c(c(-c4c5c(c(O)c6c(OC)cc(OC)cc46)CO[C@@H](C)[C@H]5OC(C)=O)c2c1)[C@H](OC(C)=O)[C@H](C)OC3 | > 75 | > 75 | 4.4 | 71 | 10 | 22 | > 75 |
| Nc1nc2c(ncn2COCCO)c(=O)[nH]1 [ACYCLOVIR] | 17 | – | – | – | – | – | – |
| COc1cccc2c1C(=O)c1c(O)c3c(c(O)c1C2=O)C[C@@](O)(C(=O)CO)C[C@@H]3O[C@H]1C[C@H](N)[C@H](O)[C@H](C)O1 [DOXORUBICIN HYDROCHLORIDE] | – | – | 0.27 | 0.23 | – | 4.9 | – |
| Cc1c2ccncc2c(C)c2c1[nH]c1ccccc12 [ELLIPTECINE] | – | 12 | – | – | – | – | – |
